Measurements: US8242160B2, “Inhibitors of ubiquitin E1” (The United States of America, as represented by the …, priority 2005, dated 2012)
Where a SMILES comes first, the peptide text is derived from it. [ ]: non-standard residue; d: D form. The star is where a group is joined. Nle = CCCC[C@H](N)C(=O)O; Cbz = O=C(OCc1ccccc1)*

Experiments:
Nedd4 = assay: In vitro autoubiquitination of HECT E3 Nedd4; type: biochemical
Experimental: It was then evaluated whether 4-[4-(5-nitro-furan-2-ylmethylene)-3,5-dioxo-pyrazolidin-1-yl]-benzoic acid methyl acid blocks autoubiquitination of both RING finger E3s (Mdm2) and HECT E3s (Nedd4) in vitro.
5 pmole per experimental point of bacterially expressed GST-Mdm2 (or GST-Nedd) is coupled to glutathione Sepharose (GS) for 30 minutes at room temperature with tumbling, followed by 3× wash with 50 mM Tris pH 7.5. Following this, 20 μl of 1× buffer is added (40 μl 10× reaction buffer*, 40 μl 10× PCK**, 320 μl dH2O). The test compound in DMSO is then added to the desired concentration with an equal volume of DMSO used as a control. Samples are incubated with shaking for 1 hr at 23° C. To carry out the reaction, a pre-made cocktail of Rabbit E1 (Calbiochem #6620700)/UbCH5B/^32P Ub cocktail (1 μl/0.5 μl/1 μl) is added followed by 15 minutes shaking at 30° C. The reaction is terminated by addition of 8 μl 4× reducing SDS-PAGE loading buffer. After dissociating proteins from the beads at 100° C. for 2 minutes, samples are resolved on 6% PAGE followed by exposure of the dried gel to phosphor screen. Note: ^32P Ub is derived from GST-Ub that has been engineered to include a PKA phosphorylation site. This fusion protein is purified on glutathione Sepharose, phosphorylated, following this, the ^32P Ub ubiquitin is cleaved and purified away from the thrombin.

IκBα = assay: TNFα-induced IκBα degradation in cells; type: cell-based
cyclin E = assay: Degradation of in vitro translated cyclin E in S-100 cytosolic extract; type: biochemical
From the text: Cytosolic extracts from cells (S-100) contain all the components for ubiquitination and proteasomal degradation. To further evaluate 4-[4-(5-nitro-furan-2-ylmethylene)-3,5-dioxo-pyrazolidin-1-yl]-benzoic acid methyl acid, we made use of in vitro translated cyclin E, which is degraded in S-100 in a time-dependent manner (FIG. 3, upper panel, lanes 1-4).

`O=c1nc2n(-c3cccc(Cl)c3)c3ccc([N+](=O)[O-])cc3cc-2c(=O)[nH]1` [98CO7, 10-(-3-chloro-phenyl)-7-nitro-10H-pyrimido[4,5-b]quinoline-2,4-dione, reference compound] was tested, and the “autoubiquitination of Nedd4” value (Nedd4) was “only has very moderate effects”.
With `CCCC[C@@H](C=O)NC(=O)[C@H](CC(C)C)NC(=O)[C@H](CC(C)C)NC(C)=O` [ALLN, reference compound] (Ac-Leu-Leu-[Nle]-aldehyde) the “TNFα-induced IκBα degradation” value (IκBα) was “prevents TNFα-induced IκBα degradation”.
For `CC(C)C[C@@H](C=O)NC(=O)[C@H](CC(C)C)NC(=O)[C@H](CC(C)C)NC(=O)OCc1ccccc1` [MG132, reference compound] (Cbz-Leu-Leu-Leu-aldehyde), the “cyclin E degradation in S-100” value (cyclin E; no exogenous E1) was “block cyclin E degradation” and the “cyclin E degradation in S-100 after addition of purified exogenous E1” value (cyclin E; purified exogenous E1 added to the reaction mixture) was “unable to overcome the block in cyclin E degradation”.
